For 24 compounds, efficacy and AC50 cell viability results are on record in the supplement of paper PMC10290057.

Structures can show the parent of a compound that is named as a salt.

In test [1] the test system is HCT116. The test can be described thus: efficacy (fitted maximal change in viability relative to DMSO control); higher = less cytotoxic (negative = loss of viability). The conditions noted are these: 48 h.
For test [2], the system named is HCT116. The test can be described thus: AC50 cell viability (CellTiter-Glo); higher = less potent. As to conditions: 48 h. (In ATP-based viability assays light output follows the ATP content of the culture.)
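Wherever AC50 cell viability (CellTiter-Glo) is given: HCT116 colorectal carcinoma cells screened at five concentrations per compound, luminescent viability scaled between DMSO wells and empty wells on each plate, curves fitted per compound.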
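Wherever efficacy (fitted maximal change in viability relative to DMSO control) is given: Luminescence-based viability readout, five doses per compound, normalized against on-plate DMSO and empty-well controls, followed by dose-response curve fitting for every drug.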

As for `O=C1c2ccccc2-[n+]2ccc3c([nH]c4ccccc43)c21` [Fascaplysin], the efficacy in test [1] was -88.3%. This compound also gave an AC50 cell viability in test [2] of 0.742 µM.
For `O=[S+]([O-])(c1cccc2cnccc12)N1CCCNCC1` [Fasudil hydrochloride], the efficacy in test [1] is -49.1%. The compound further yielded an AC50 cell viability in test [2] of 18.6 µM.
For `COC(=O)Nc1nc2cc(Sc3ccccc3)ccc2[nH]1` [Fenbendazole], in that order: -79.7% and 1.05 µM.
Consider `CC1=C(/C=C/C(C)=C/C=C/C(C)=C/C(=O)Nc2ccc(O)cc2)C(C)(C)CCC1` [Fenretinide], for which the efficacy in test [1] is -84.3%. Moreover, in test [2], the AC50 cell viability is 23.5 µM.
In the same order, the values of `Clc1ccc(C(Cn2ccnc2)OCc2ccc(Sc3ccccc3)cc2)c(Cl)c1` (stereo not drawn) [Fenticonazole nitrate] are -90.5% and 20.9 µM.
In the same order, the values of `CON(C)C(=O)N1/N=C(S[C@@]1(CCCN)C2=CC=CC=C2)/C3=CC(=CC=C3F)F` [Filanesib] are -42.1% and 20.9 µM.
For `O=C(Nc1nc2cccc(-c3ccc(CN4CC[S+](=O)([O-])CC4)cc3)n2n1)C1CC1` [Filgotinib], in that order: -70.1% and 7.42 µM.
In the case of `CCCCCCCCc1ccc(CCC(N)(CO)CO)cc1` [Fingolimod hydrochloride], in test [1], the efficacy was -105%. In test [2], the AC50 cell viability is 20.9 µM.
In the same order, the values of `CN1CC[C@H]([C@@H](O)C1)C2=C(O)C=C(O)C3=C2O\C(=C/C3=O)C4=CC=CC=C4Cl` [Flavopiridol] are -63.7% and 0.186 µM.
In the same order, the values of `OC[C@H]1O[C@H](C[C@@H]1O)N2\C=C(F)/C(=O)NC2=O` [Floxuridine] are -82.9% and 0.235 µM.
Regarding `COC(=O)Nc1nc2cc(C(=O)c3ccc(F)cc3)ccc2[nH]1` [Flubendazole], the efficacy in test [1] is -54.4%. In test [2], this compound showed an AC50 cell viability of 0.468 µM.
For `Nc1nc(F)nc2c1ncn2[C@@H]1O[C@H](COP(=O)(O)O)[C@@H](O)[C@@H]1O` [Fludarabine phosphate], in that order: -58.2% and 7.42 µM.
In the same order, the values of `Cc1ncc(NC(=O)c2ccc(CN3CCN(C)CC3)c(C(F)(F)F)c2)cc1Nc1nccc(-c2cccnc2)n1` [Flumatinib mesylate] are -95.8% and 18.6 µM.
In the same order, the values of `NC\1=N\C(=O)N(\C=C1)[C@H]\2[C@H](O)[C@H](O)C(=C2F)\CO` [Fluorocyclopentenylcytosine] are -66.3% and 0.525 µM.
In the case of `F\C1=C\NC(=O)NC1=O` [Fluorouracil], in test [1], the efficacy is -64.4%. The AC50 cell viability in test [2] was 10.5 µM.
For `OCCN1CCN(CCCN2c3ccccc3Sc3ccc(C(F)(F)F)cc32)CC1` [Fluphenazine hydrochloride], in that order: -94.5% and 7.42 µM.
Turning to `C[C@@H]1CC2C3C[C@H](F)C\4=C\C(=O)\C=C/[C@]4(C)[C@@]3(F)[C@@H](O)C[C@]2(C)[C@@]1(OC(=O)C5=CC=CO5)C(=O)SCF` (stereo partly drawn) [Fluticasone furoate], the efficacy in test [1] is -76.9%. In addition, the AC50 cell viability in test [2] is 20.9 µM.
In the same order, the values of `CC(C)n1c(/C=C/[C@H](O)C[C@H](O)CC(=O)O)c(-c2ccc(F)cc2)c2ccccc21` [Fluvastatin] are -71.8% and 9.34 µM.
For `COc1cc2c(Oc3ccc(NC(=O)C4(C(=O)Nc5ccc(F)cc5)CC4)cc3F)ccnc2cc1OCCCN1CCOCC1` [Foretinib], in that order: -101% and 5.9 µM.
In the same order, the values of `COc1cc(Nc2ncc(F)c(Nc3ccc4c(n3)N(COP(=O)(O)O)C(=O)C(C)(C)O4)n2)cc(OC)c1OC` [Fostamatinib] are -70.2% and 18.6 µM.
On to `C[S+](=O)([O-])c1ccc(-c2nnc(/C=C/c3nnc(-c4ccc(C#N)cc4)o3)n2-c2ccccc2Cl)nc1` [G-007-LK], for which the efficacy in test [1] was -48.4%. This compound showed an AC50 cell viability in test [2] of 14.8 µM.
`CN(C)c1ccccc1CN1CCCN(Cc2ccccc2N(C)C)C1c1ccncc1` [GANT-61]: the efficacy in test [1] is -88.6%. In test [2], the AC50 cell viability was found to be 18.6 µM.
For `O=C(Nc1ccnc(NC(=O)C2CC2)c1)c1c(Cl)cccc1Cl` [GDC-046], in that order: -79.8% and 2.35 µM.
In the case of `CC1(C)OCCn2c1nc1c(N3CCOCC3)nc(-c3cnc(N)nc3)nc12` [GDC-0084], the efficacy in test [1] is -58.4%. Further, in test [2], the AC50 cell viability is 0.833 µM.
